Assay results reported in patent US11987648B2, “Cyclohexapeptides as selective somatostatin SST5 receptor agonists” (Heptares Therapeutics Limited, priority 2018, dated 2024).
*1 amine or outer side, *2 acyl side, *3 side chain or, on linkers, in order; H or OH if unused. Where a SMILES comes first, the peptide text is derived from it. Side-chain parts run from the residue outwards. [ ]: non-standard residue; d: D form. The star is where a group is joined. Ala(piperidin-4-yl) = O=C([C@H](CC1CCN([*:3])CC1)N[*:1])[*:2]; X2 = O=C([C@@H]1C[C@@H](Oc2ccncc2)CN1[*:1])[*:2]; Ala(piperazin-1-yl) = N[C@@H](CN1CCNCC1)C(=O)O; X5 = CN([C@@H](CC1CCNCC1)C(=O)[*:2])[*:1]; Phe(4-Cl) = N[C@@H](Cc1ccc(Cl)cc1)C(=O)O; Morpholine(3S-CO) = O=C(O)[C@@H]1COCCN1; Ethylenediamine = C(CN[*:2])N[*:1]; d(hPhe) = N[C@H](CCc1ccccc1)C(=O)O; Hyp = O=C(O)[C@@H]1C[C@@H](O)CN1; hPhe = N[C@@H](CCc1ccccc1)C(=O)O; 3Pal = N[C@@H](Cc1cccnc1)C(=O)O; Cyclohexylmethyl = C1CCC(C*)CC1; Tic = O=C(O)[C@@H]1Cc2ccccc2CN1; Phg = N[C@H](C(=O)O)c1ccccc1; CO = O=C([*:1])[*:2]; Bn = c1ccc(C*)cc1

How the values were obtained:
[1] = target: SST5 (Homo sapiens, UniProt P35346); test: Hit Hunter cAMP XS+ assay, SST5 activation via Gi (reduction of forskolin-stimulated cAMP); type: cell-based; settings: for Emax: read-out: SST5 (EMax); for EC50: reduction of forskolin-stimulated cAMP, 4-parameter logistic fit, read-out: SST5 pEC50 (converted); for SST5/2 Selectivity: selectivity for SST5 over SST2
Experimental: (§1) A Hit Hunter® cAMP XS+ assay was used to monitor activation of the SST2 and SST5 via the Gi G protein. Cells were pre-stimulated with forskolin to elicit a cAMP response and the potency and efficacy of somatostatin agonists to reduce cAMP was measured. Briefly cells (10,000 cells/well) were incubated (37° C.; 30 min) with compound ([…]) in media (2:1 HBSS/11 mM Hepes: cAMP XS+Ab reagent) in the presence of EC80 forskolin ([…] and 15 μM SST5). Signal was detected through incubation with 20 μL cAMP XS+ED/CL lysis cocktail ([…]; RT) followed by incubation with […] cAMP XS+EA reagent (180 min; RT). Microplates were read with a PerkinElmer Envision™ instrument for chemiluminescent signal detection.

[2] = target: SST2 (Homo sapiens, UniProt P30874); test: Hit Hunter cAMP XS+ assay, SST2 activation via Gi (reduction of forskolin-stimulated cAMP); type: cell-based; settings: for Emax: read-out: SST2 (EMax); for EC50: reduction of forskolin-stimulated cAMP, 4-parameter logistic fit, read-out: SST2 pEC50 (converted)
Experimental: as §1

SST5, sequence (P35346 whole entry): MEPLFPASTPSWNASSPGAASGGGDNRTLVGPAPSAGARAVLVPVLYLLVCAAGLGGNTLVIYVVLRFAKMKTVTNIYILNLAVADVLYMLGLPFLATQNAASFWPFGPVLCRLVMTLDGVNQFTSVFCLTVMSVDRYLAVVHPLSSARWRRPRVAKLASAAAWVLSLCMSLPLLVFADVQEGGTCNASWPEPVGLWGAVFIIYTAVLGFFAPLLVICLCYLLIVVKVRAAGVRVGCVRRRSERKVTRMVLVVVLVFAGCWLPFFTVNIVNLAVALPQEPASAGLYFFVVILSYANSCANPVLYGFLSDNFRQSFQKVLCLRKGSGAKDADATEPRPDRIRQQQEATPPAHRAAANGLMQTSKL
SST2, sequence (P30874 whole entry): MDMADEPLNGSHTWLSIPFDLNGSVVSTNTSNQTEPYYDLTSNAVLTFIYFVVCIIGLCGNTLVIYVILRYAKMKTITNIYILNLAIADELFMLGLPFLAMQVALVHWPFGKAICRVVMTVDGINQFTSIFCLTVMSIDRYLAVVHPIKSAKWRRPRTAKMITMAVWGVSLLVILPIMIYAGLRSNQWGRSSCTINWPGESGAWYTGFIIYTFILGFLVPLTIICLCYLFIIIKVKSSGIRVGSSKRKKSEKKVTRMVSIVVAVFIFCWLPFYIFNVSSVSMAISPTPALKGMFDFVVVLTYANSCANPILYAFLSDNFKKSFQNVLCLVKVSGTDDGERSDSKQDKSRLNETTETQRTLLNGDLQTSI

Structure (SMILES)	Emax [1] [%]	EC50 [1] [nM]	SST5/2 Selectivity [1]	Emax [2] [%]	EC50 [2] [nM]
NCCNC(=O)O[C@@H]1C[C@H]2C(=O)N[C@@H](CCc3ccccc3)C(=O)N[C@@H](Cc3c[nH]c4ccccc34)C(=O)N[C@@H](CC3CCNCC3)C(=O)N[C@@H](Cc3ccc(OCc4ccccc4)cc3)C(=O)N3Cc4ccccc4C[C@H]3C(=O)N2C1 [Example 19] (cyclo([Hyp]([CO-Ethylenediamine])[hPhe]W[Ala(piperidin-4-yl)]Y(Bn)[Tic]))	99.8	20	5.5	75.5	100
O=C1N[C@@H](Cc2cccnc2)C(=O)N2C[C@H](Oc3ccncc3)C[C@H]2C(=O)N[C@H](CCc2ccccc2)C(=O)N[C@H](Cc2c[nH]c3ccccc23)C(=O)N[C@@H](CC2CCNCC2)C(=O)N[C@H]1Cc1ccc(OCc2ccccc2)cc1 [Example 20] (cyclo([3Pal][X2][d(hPhe)][dW][Ala(piperidin-4-yl)]Y(Bn)))	99.6	6.31	418.4	98	3160
O=C1N[C@@H](Cc2cccnc2)C(=O)N2C[C@H](Oc3ccncc3)C[C@H]2C(=O)N[C@@H](CCc2ccccc2)C(=O)N[C@H](Cc2c[nH]c3ccccc23)C(=O)N[C@@H](CC2CCNCC2)C(=O)N[C@H]1Cc1ccc(OCc2ccccc2)cc1 [Example 22] (cyclo([3Pal][X2][hPhe][dW][Ala(piperidin-4-yl)]Y(Bn)))	102	0.501	142.6	100	79.4
O=C1N[C@@H](Cc2ccc(OCc3ccccc3)cc2)C(=O)N[C@@H](Cc2cccnc2)C(=O)N2C[C@H](Oc3ccncc3)C[C@H]2C(=O)N[C@@H](CCc2ccccc2)C(=O)N[C@@H](Cc2c[nH]c3ccccc23)C(=O)N[C@H]1CC1CCNCC1 [Example 23] (cyclo([3Pal][X2][hPhe]W[Ala(piperidin-4-yl)]Y(Bn)))	101	3.98	148.7	96.6	631
O=C1N[C@@H](Cc2ccc(OCc3ccccc3)cc2)C(=O)N[C@@H](Cc2cccnc2)C(=O)N2C[C@H](Oc3ccncc3)C[C@H]2C(=O)N[C@H](CCc2ccccc2)C(=O)N[C@@H](Cc2c[nH]c3ccccc23)C(=O)N[C@H]1CC1CCNCC1 [Example 24] (cyclo([3Pal][X2][d(hPhe)]W[Ala(piperidin-4-yl)]Y(Bn)))	102	100	110.6	46.8	> 10000
NCCNC(=O)O[C@@H]1C[C@H]2C(=O)N[C@H](CCc3ccccc3)C(=O)N[C@H](Cc3c[nH]c4ccccc34)C(=O)N[C@@H](CN3CCNCC3)C(=O)N[C@@H](Cc3ccc(OCc4ccccc4)cc3)C(=O)N3Cc4ccccc4C[C@H]3C(=O)N2C1 [Example 25] (cyclo([Hyp]([CO-Ethylenediamine])[d(hPhe)][dW][Ala(piperazin-1-yl)]Y(Bn)[Tic]))	102	0.126	1351.8	100	200
NCCNC(=O)O[C@@H]1C[C@H]2C(=O)N[C@@H](CCc3ccccc3)C(=O)N[C@H](Cc3c[nH]c4ccccc34)C(=O)N[C@@H](CN3CCNCC3)C(=O)N[C@@H](Cc3ccc(OCc4ccccc4)cc3)C(=O)N3Cc4ccccc4C[C@H]3C(=O)N2C1 [Example 26] (cyclo([Hyp]([CO-Ethylenediamine])[hPhe][dW][Ala(piperazin-1-yl)]Y(Bn)[Tic]))	99.1	0.126	4067.3	66.6	501
NCCNC(=O)O[C@@H]1C[C@H]2C(=O)N[C@@H](c3ccccc3)C(=O)N[C@H](Cc3c[nH]c4ccccc34)C(=O)N[C@@H](CN3CCNCC3)C(=O)N[C@@H](Cc3ccc(OCC4CCCCC4)cc3)C(=O)N[C@@H](Cc3ccccc3)C(=O)N2C1 [Example 27] (cyclo(F[Hyp]([CO-Ethylenediamine])[Phg][dW][Ala(piperazin-1-yl)]Y(Cyclohexylmethyl)))	99.4	2.51	159.6	90.7	398
O=C1N[C@@H](Cc2ccc(OCc3ccccc3)cc2)C(=O)N2Cc3ccccc3C[C@H]2C(=O)N2CCOC[C@H]2C(=O)N[C@@H](CCc2ccccc2)C(=O)N[C@H](Cc2c[nH]c3ccccc23)C(=O)N[C@H]1CN1CCNCC1 [Example 31] (cyclo([Tic][Morpholine(3S-CO)][hPhe][dW][Ala(piperazin-1-yl)]Y(Bn)))	88.7	0.0631	3441.5	99.7	200
CN1C(=O)[C@@H](Cc2c[nH]c3ccccc23)NC(=O)[C@@H](CCc2ccccc2)NC(=O)[C@@H]2COCCN2C(=O)[C@@H]2Cc3ccccc3CN2C(=O)[C@H](Cc2ccc(OCc3ccccc3)cc2)NC(=O)[C@@H]1CC1CCNCC1 [Example 32] (cyclo([Tic][Morpholine(3S-CO)][d(hPhe)][dW][X5]Y(Bn)))	99.9	1.26	66.8	98.8	100
NCCNC(=O)O[C@@H]1C[C@H]2C(=O)N[C@@H](CCc3ccccc3)C(=O)N[C@H](Cc3c[nH]c4ccccc34)C(=O)N[C@@H](CN3CCNCC3)C(=O)N[C@@H](Cc3ccc(OCc4ccccc4)cc3)C(=O)N3CCC[C@H]3C(=O)N2C1 [Example 37] (cyclo([Hyp]([CO-Ethylenediamine])[hPhe][dW][Ala(piperazin-1-yl)]Y(Bn)P))	108	2	2927.5	75.8	6310

Continued, values first:

Emax [1] [%]	EC50 [1] [nM]	SST5/2 Selectivity [1]	Emax [2] [%]	EC50 [2] [nM]	Structure (SMILES)
100	0.0794	101.0	99.6	7.94	NCCNC(=O)O[C@@H]1C[C@H]2C(=O)N[C@@H](CCc3ccccc3)C(=O)N[C@H](Cc3c[nH]c4ccccc34)C(=O)N[C@@H](CC3CCNCC3)C(=O)N[C@@H](Cc3ccc(OCc4ccccc4)cc3)C(=O)N[C@@H](Cc3ccccc3)C(=O)N2C1 [Example 28] (cyclo(F[Hyp]([CO-Ethylenediamine])[hPhe][dW][Ala(piperidin-4-yl)]Y(Bn)))
100	1	663.6	89.6	794	NCCNC(=O)O[C@@H]1C[C@H]2C(=O)N[C@@H](CCc3ccccc3)C(=O)N[C@@H](Cc3c[nH]c4ccccc34)C(=O)N[C@@H](CC3CCNCC3)C(=O)N[C@@H](Cc3ccc(OCc4ccccc4)cc3)C(=O)N[C@@H](Cc3ccccc3)C(=O)N2C1 [Example 29] (cyclo(F[Hyp]([CO-Ethylenediamine])[hPhe]W[Ala(piperidin-4-yl)]Y(Bn)))
101	1	214.2	100	251	NCCNC(=O)O[C@@H]1C[C@H]2C(=O)N[C@H](CCc3ccccc3)C(=O)N[C@H](Cc3c[nH]c4ccccc34)C(=O)N[C@@H](CN3CCNCC3)C(=O)N[C@@H](Cc3ccc(OCc4ccccc4)cc3)C(=O)N[C@@H](Cc3ccc(Cl)cc3)C(=O)N2C1 [Example 30] (cyclo([Hyp]([CO-Ethylenediamine])[d(hPhe)][dW][Ala(piperazin-1-yl)]Y(Bn)[Phe(4-Cl)]))
107	39.8	279.1	13.4	> 10000	NCCNC(=O)O[C@@H]1C[C@H]2C(=O)N[C@H](CCc3ccccc3)C(=O)N[C@@H](Cc3c[nH]c4ccccc34)C(=O)N[C@@H](CN3CCNCC3)C(=O)N[C@@H](Cc3ccc(OCc4ccccc4)cc3)C(=O)N[C@@H](Cc3cccnc3)C(=O)N2C1 [Example 33] (cyclo([3Pal][Hyp]([CO-Ethylenediamine])[d(hPhe)]W[Ala(piperazin-1-yl)]Y(Bn)))
102	1	3271.8	49.2	3980	NCCNC(=O)O[C@@H]1C[C@H]2C(=O)N[C@@H](CCc3ccccc3)C(=O)N[C@@H](Cc3c[nH]c4ccccc34)C(=O)N[C@@H](CN3CCNCC3)C(=O)N[C@@H](Cc3ccc(OCc4ccccc4)cc3)C(=O)N[C@@H](Cc3cccnc3)C(=O)N2C1 [Example 34] (cyclo([3Pal][Hyp]([CO-Ethylenediamine])[hPhe]W[Ala(piperazin-1-yl)]Y(Bn)))
107	1	10046.0	27.8	> 10000	NCCNC(=O)O[C@@H]1C[C@H]2C(=O)N[C@H](CCc3ccccc3)C(=O)N[C@@H](Cc3c[nH]c4ccccc34)C(=O)N[C@@H](CN3CCNCC3)C(=O)N[C@@H](Cc3ccc(OCc4ccccc4)cc3)C(=O)N3Cc4ccccc4C[C@H]3C(=O)N2C1 [Example 35] (cyclo([Hyp]([CO-Ethylenediamine])[d(hPhe)]W[Ala(piperazin-1-yl)]Y(Bn)[Tic]))
102	1.26	384.3	63.4	501	NCCNC(=O)O[C@@H]1C[C@H]2C(=O)N[C@@H](CCc3ccccc3)C(=O)N[C@@H](Cc3c[nH]c4ccccc34)C(=O)N[C@@H](CN3CCNCC3)C(=O)N[C@@H](Cc3ccc(OCc4ccccc4)cc3)C(=O)N3Cc4ccccc4C[C@H]3C(=O)N2C1 [Example 36] (cyclo([Hyp]([CO-Ethylenediamine])[hPhe]W[Ala(piperazin-1-yl)]Y(Bn)[Tic]))
